The data set in a line: physchem. Format: physicochemical. Particulars: 25 °C. An excerpt: Below pH 3, the solubility increased as the pH decreased which is consistent with formation of a more soluble protonated form. […] Above pH 4, the solubility was independent of pH and remained constant (ca. 1.2 mcg/mL) up to pH 8. Above pH 8, the solubility increased with increasing pH which is due to the ionization of the quinazoline moiety.

The term solubility denotes the concentration that dissolves in the medium under given conditions.

Counter-ions that a name gives are not always drawn.

Regarding `O=C1CN2Cc3c(ccc(Cl)c3Cl)N=C2N1` [anagrelide HCl], the solubility was ~1.2 µg/mL (aqueous buffer); 236 µg/mL (pH 0.96, simulated gastric fluid); 992 µg/mL (pH 11.4, aqueous buffer).

These data come from patent publication US20040062800A1, “Sustained release pharmaceutical dosage forms with minimized ph dependent dissolution profiles” (priority 2000, published 2004).
